# pEC50: −log10 of the molar value. Ends that are not written are not given here.
# Tests used:
# [1] = test system: reconstructed human epidermis (RHE); test: Gene expression (RT-qPCR array) in inflammatory reconstructed human epidermis; format: cell-based; conditions: with cytokines and peptide 0.3 PPM; versus non stimulated RHE
# Procedure: Transcriptional effects of a peptide (YPLDLF, SEQ ID No 1) on gene expression were researched on a reconstructed human epidermis (RHE) model under inflammatory conditions. The inflammation of the RHE was induced using a mix of cytokines (IL-17+OSM+TNF-α). The effects on gene expression were evaluated using RT-qPCR technology. Extracted mRNA was analyzed on a customized PCR array designed by the study sponsor and containing 64 target genes (including 2 housekeeping genes) selected for their role in keratinocyte differentiation, or their involvement in cell junctions and lipid synthesis, or their relation to opioid receptor delta (DOR).
# Reconstructed human epidermis (RHE) of 11 days old was prepared according to a derived method described by Poumay et al. (2004). These RHE were cultivated at 37° C. and 5% of CO2 in a specific maintenance medium.
# The RHE were cultured in assay medium containing or not (controls) the test compounds or the reference […] inhibitor I at 10 μM) and pre-incubated for 24 hours. Epidermises were then stimulated or not (non-stimulated control) with a cytokine mix (IL-17+OSM+TNF-α) at 3 ng/ml and the epidermises were incubated for 24 hours. All experimental conditions were performed in n=2.
# At the end of incubation, the supernatants were collected and the RHE were washed in phosphate buffered saline solution (PBS) and immediately dry-frozen at −80° C.
# The expression of markers was analyzed using RT-qPCR method on mRNA extracted from RHE for each treatment (before RNA extraction the replicates were pooled).
# Analysis of gene expression was performed in n=2 using a customized PCR array dedicated to research and adapted to ‘screening’ format.
# Total RNA was extracted from each sample using TriPure Isolation Reagent® according to the supplier's instructions. The amount and quality of RNA were evaluated using a lab-on-a-chip Bioanalyzer (Agilent technologies). The RNA quality controls are presented in appendix. Potential contaminant traces of genomic DNA were removed using the DNAfree system (Ambion). The reverse-transcription of mRNA was conducted in presence of oligo(dT) and Superscript II reverse-transcriptase. Quantification of cDNA was performed using Nanovue (GE Healthcare) and adjustment of cDNA at 10 ng/μl.
# The PCRs (Polymerase Chain Reactions) were performed using the <<LightCycler®>> system (Roche Molecular System Inc.) according to supplier's instructions. This system allows rapid and powerful PCRs, after determining analysis conditions of the test primers.
# The reaction mix (10 μl final) was added as follows: • 2.5 μl of cDNA at 10 ng/μl, • primers forward and reverse, • reagent mix containing taq DNA polymerase, SYBR Green I and MgCl2. Data Management of Quantitative PCR
# The incorporation of fluorescence in amplified DNA was continuously measured during the PCR cycles. […] The value selected for RE calculations is the “output point” (Ct) of the fluorescence curve. For a considered marker, the highest is the cycle number; the lowest is the mRNA quantity. The RE value was expressed in arbitrary units (AU) according to the formula: (½^number of cycles)×10^6.
# delta2 opioid receptor = target: T1, delta2 opioid receptor (Mus musculus, UniProt P32300); test: Agonist effect at the delta2 opioid receptor (DOP), cell impedance; format: cell-based
# T1 construct: host or cells: unnamed cells 'bearing the delta2 opioid receptor'
# T1 sequence (P32300 whole entry): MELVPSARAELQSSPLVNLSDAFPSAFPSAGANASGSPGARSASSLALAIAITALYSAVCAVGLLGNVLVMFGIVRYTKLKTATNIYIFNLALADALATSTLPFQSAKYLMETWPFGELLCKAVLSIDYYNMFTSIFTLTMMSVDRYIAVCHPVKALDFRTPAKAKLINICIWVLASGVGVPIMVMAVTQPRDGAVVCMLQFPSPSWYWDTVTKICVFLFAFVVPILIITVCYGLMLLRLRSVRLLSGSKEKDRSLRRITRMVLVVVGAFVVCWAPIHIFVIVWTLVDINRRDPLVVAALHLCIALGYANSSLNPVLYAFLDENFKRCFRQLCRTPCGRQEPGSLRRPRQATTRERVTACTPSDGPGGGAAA
# Procedure: Frozen spinach leaves were thawed and disrupted in fine particles a blender. This juice was further treated with ultrasounds to disrupt cells and proteins were recovered by acidic precipitation. These proteins were then digested by several enzymes, including pepsin and papain. The hydrolysate was purified (ultrafiltration), fractionated and stored before testing. Meanwhile, synthetic peptides were ordered from a manufacturer. The peptides and the hydrolysates were tested on cells bearing the delta2 opioid receptor and cell impedance was measured to evaluate the binding activity of the tested compounds (Law and Loh, 1993).
# The EC50 values (concentration producing a half-maximal specific response) and IC50 values (concentration causing a half-maximal inhibition of the control specific agonist response) were determined by non-linear regression analysis of the concentration-response curves generated with mean replicate values using Hill equation curve fitting (Y=D+[(A D)/(1+(C/C50)nH)], where Y=specific response, D=minimum specific response, A=maximum specific response, C=compound concentration, and C50=EC50 or IC50, and nH=slope factor).
# [2] = percent of control specific agonist response (DPDPE)
substance,measurement,setting,value
YPLDLF [YPLDLF],Relative expression of ACSS2,[1],113 % Control (Mean HK)
same,Relative expression of ADRB2,[1],259 % Control (Mean HK)
same,Relative expression of BIRC5,[1],88 % Control (Mean HK)
same,Relative expression of CALML5 (Calmodulin-like 5),[1],72 % Control (Mean HK)
same,Relative expression of CASP3,[1],104 % Control (Mean HK)
same,Relative expression of CDH1 (E-cadherin),[1],126 % Control (Mean HK)
same,Relative expression of CDSN (Corneodesmosin),[1],161 % Control (Mean HK)
same,Relative expression of CLDN1 (Claudin 1),[1],128 % Control (Mean HK)
same,Relative expression of CLDN2 (Claudin 2),[1],121 % Control (Mean HK)
same,Relative expression of CREB1,[1],109 % Control (Mean HK)
same,Relative expression of CRNN (Cornulin),[1],71 % Control (Mean HK)
same,Relative expression of CTNNA1,[1],117 % Control (Mean HK)
same,Relative expression of CTNNB1,[1],134 % Control (Mean HK)
same,Relative expression of DSG1 (Desmoglein 1),[1],98 % Control (Mean HK)
same,Relative expression of DSP (Desmoplakin),[1],107 % Control (Mean HK)
same,Relative expression of DST (Dystonin),[1],93 % Control (Mean HK)
same,Relative expression of EGFR,[1],141 % Control (Mean HK)
same,Relative expression of EPPK1 (Epiplakin 1),[1],82 % Control (Mean HK)
same,Relative expression of EVPL (Envoplakin),[1],132 % Control (Mean HK)
same,Relative expression of F11R,[1],115 % Control (Mean HK)
same,Relative expression of FLG (Filaggrin),[1],117 % Control (Mean HK)
same,Relative expression of GAPDH,[1],116 % Control (Mean HK)
same,Relative expression of GBA,[1],110 % Control (Mean HK)
same,Relative expression of GJA1,[1],111 % Control (Mean HK)
same,Relative expression of GJA5,[1],90 % Control (Mean HK)
same,Relative expression of GJB2,[1],131 % Control (Mean HK)
same,Relative expression of GJB3,[1],111 % Control (Mean HK)
same,Relative expression of GJB4,[1],77 % Control (Mean HK)
same,Relative expression of GJB5,[1],122 % Control (Mean HK)
same,Relative expression of GJB6,[1],203 % Control (Mean HK)
same,Relative expression of GJC1,[1],126 % Control (Mean HK)
same,Relative expression of GJD3,[1],487 % Control (Mean HK)
same,Relative expression of GNAS,[1],130 % Control (Mean HK)
same,Relative expression of ITGA2,[1],108 % Control (Mean HK)
same,Relative expression of ITGAV,[1],103 % Control (Mean HK)
same,Relative expression of IVL (Involucrin),[1],119 % Control (Mean HK)
same,Relative expression of KRT1 (Keratin 1),[1],140 % Control (Mean HK)
same,Relative expression of KRT10 (Keratin 10),[1],145 % Control (Mean HK)
same,Relative expression of KRT19 (Keratin 19),[1],134 % Control (Mean HK)
same,Relative expression of LOR (Loricrin),[1],121 % Control (Mean HK)
same,Relative expression of MAPK1,[1],108 % Control (Mean HK)
same,Relative expression of MAPK14,[1],109 % Control (Mean HK)
same,Relative expression of OCLN (Occludin),[1],131 % Control (Mean HK)
same,Relative expression of ODC1,[1],110 % Control (Mean HK)
same,"Relative expression of OPRD1 (Opioid receptor, delta 1)",[1],101 % Control (Mean HK)
same,Relative expression of PADI1,[1],105 % Control (Mean HK)
same,Relative expression of PANX1 (Pannexin 1),[1],133 % Control (Mean HK)
same,Relative expression of PTGS2,[1],119 % Control (Mean HK)
same,Relative expression of PVRL1,[1],131 % Control (Mean HK)
same,Relative expression of RPS28 (Ribosomal protein S28),[1],91 % Control (Mean HK)
same,Relative expression of SFN (Stratifin),[1],143 % Control (Mean HK)
same,Relative expression of SLC1A3,[1],100 % Control (Mean HK)
same,Relative expression of SMPD1,[1],87 % Control (Mean HK)
same,Relative expression of SPRR1A,[1],142 % Control (Mean HK)
same,Relative expression of SPRR1B,[1],127 % Control (Mean HK)
same,Relative expression of SPRR2A,[1],111 % Control (Mean HK)
same,Relative expression of SPTLC1,[1],120 % Control (Mean HK)
same,Relative expression of STAT3,[1],120 % Control (Mean HK)
same,Relative expression of SULT2B1,[1],173 % Control (Mean HK)
same,Relative expression of TGM1 (Transglutaminase 1),[1],108 % Control (Mean HK)
same,Relative expression of TJAP1,[1],81 % Control (Mean HK)
same,Relative expression of TJP1,[1],129 % Control (Mean HK)
same,Relative expression of UGCG,[1],117 % Control (Mean HK)
same,pEC50,delta2 opioid receptor,5.41
same,A (Hill curve fit parameter),delta2 opioid receptor; [2],−8.3
same,D (Hill curve fit parameter),delta2 opioid receptor; [2],100.0
